The values below come from US20140066367A1, “SUBCUTANEOUS DELIVERY OF A LONG-ACTING NATRIURETIC PEPTIDE” (Mayo Foundation for Medical Education and Research, priority 2012, published 2014).

One data set has as its system cGMP. Briefly: Plasma cGMP after subcutaneous administration to conscious canines. In kind it is in vivo, canine. Here is the method:
(§1) Studies were performed in accordance with the Animal Welfare Act and with approval of the Mayo Clinic Institutional Animal Care and Use Committee. A randomized crossover study was designed in which equimolar (2.225 nmol/kg) SQ M-ANP and SQ ANP were administered to conscious healthy adult canines (n=5) at 2-week intervals. Vehicle (SQ 0.9% normal saline) was administered to 3 canines serving as a control group. At least 7 days prior to the above studies, an arterial port was placed in the femoral artery as previously described (Cataliotti et al. (2008) Circulation, 118:1729-1736). After recovery from arterial port placement, canines were fed a fixed sodium diet of 100 mEq/d with ad libitum access to water for 5 days before initiation of studies. During this time, canines were acclimatized to standing calm in a sling. On the day of the experiment, the dogs were fasted and placed in a sling in a quiet room. Thirty minutes before the beginning of the experiment, the femoral artery port was accessed for continuous BP and heart rate assessment (iWorx, Dover, N.H.). After 30 minutes of acclimatization, the study protocol was started. Subcutaneous M-ANP, ANP or vehicle was administered at time 0 minutes. At time −15, 0, 5, 10, 15, 30, 45, 60, 75, 90, 120, 150, 180, 210, 240, 270, and 300 minutes, mean arterial pressure (MAP) and heart rate samples were obtained over a period of 1 minute. […]
(§2) Blood samples were collected in chilled EDTA tubes, immediately placed on ice, and centrifuged at 4° C. […] After extraction, plasma ANP immunoreactivity (Phoenix Pharmaceuticals, Burlingame, Calif.) was assessed by radioimmunoassay as previously described (Burnett et al. (1986) Science, 231:1145-1147). […] Plasma cGMP (PerkinElmer, Waltham, Mass.) was assessed by radioimmunoassay (Steiner et al., supra).
(§3) Pharmacokinetic profile of M-ANP compared to ANP was determined using PK Solutions software (Summit PK, Montrose, Colo.). Specific parameters that were determined included plasma half-life, maximum concentration (Cmax) and area under the curve (AUC).

The conditions of data set [1]: infusion of a low dose, normal dogs; cited from earlier work.
Data set [2] can be described thus: Plasma ANP immunoreactivity and pharmacokinetics after subcutaneous administration to conscious canines. In kind it is in vivo, canine. Here is the method:
as §1, §2, §3

Data set [3] can be described thus: Mean arterial pressure and heart rate after subcutaneous administration to conscious canines. To be noted: SQ. It is filed as in vivo, canine. As for the experimental part:
as §1

Where [4] appears, read: plasma cGMP, subcutaneous, equimolar 2.225 nmol/kg, conscious canines.

Consider `CC[C@H](C)[C@@H]1NC(=O)[C@H](CCCNC(=N)N)NC(=O)[C@H](CC(=O)O)NC(=O)[C@H](CCSC)NC(=O)[C@H](CCCNC(=N)N)NC(=O)CNC(=O)CNC(=O)[C@H](Cc2ccccc2)NC(=O)[C@@H](NC(=O)[C@H](CO)NC(=O)[C@H](CO)NC(=O)[C@H](CCCNC(=N)N)NC(=O)[C@H](CCCNC(=N)N)NC(=O)[C@H](CC(C)C)NC(=O)[C@@H](N)CO)CSSC[C@@H](C(=O)N[C@@H](CC(N)=O)C(=O)N[C@@H](CO)C(=O)N[C@@H](Cc2ccccc2)C(=O)N[C@@H](CCCNC(=N)N)C(=O)N[C@@H](Cc2ccc(O)cc2)C(=O)O)NC(=O)CNC(=O)[C@H](CC(C)C)NC(=O)CNC(=O)[C@H](CO)NC(=O)[C@H](CCC(N)=O)NC(=O)[C@H](C)NC(=O)CNC1=O` [ANP], for which the “duration of sustained cGMP activation” value with cGMP (SQ, canines) stood at 60 min. In the data set on cGMP (setting [4]), the “cGMP AUC” value is 676 ± 211 pmol·min/mL and the “cGMP Cmax” value is 14.7 ± 1.9 pmol/mL. In data set [1], the “change in glomerular filtration rate (GFR) or MAP” value was “No change”. Moreover, in data set [2] (SQ, canines), the “time ANP immunoreactivity remained significantly elevated” value came out at 45 min and the “time of peak ANP immunoreactivity after administration” value worked out at 15 min. Moreover, the “ANPi AUC” value in data set [2] (subcutaneous, equimolar 2.225 nmol/kg, conscious canines) was found to be 10.8 ± 2.4 pmol·min/mL. In addition, the “effect on MAP” value in data set [3] is “no significant reduction in MAP”.
